How the values were obtained:
Assay in all cases: Pemetrexed cytotoxicity test upon suppression of expression of MYT1
Format in all cases: cell-based
A549 = A549 (RB1 wild-type)
Method: (§1) Thereafter, the plates were shaken to transfect each siRNA at a final concentration of 10 nM.
(§2) The −Log 2 value of fold change of IC50 and the maximum value of Bliss score, which are indexes of the combination effect, were calculated by comparing with the actually obtained cell survival curve, and described in Table 6 (see Non Patent Literature 9).

NCI-H358 = NCI-H358 (RB1 wild-type)
Method: as §1, §2

NCI-H1993 = NCI-H1993 (RB1 wild-type)
Method: as §1, §2

NCI-H322 = NCI-H322 (RB1 wild-type)
Method: as §1, §2

NCI-H292 = NCI-H292 (RB1 wild-type)
Method: as §1, §2

PC-9 = PC-9 (RB1 wild-type)
Method: as §1, §2

NCI-H2122 = NCI-H2122 (RB1 wild-type)
Method: as §1, §2

ChaGo-K-1 = ChaGo-K-1 (RB1 mutant)
Method: as §1, §2

NCI-H1155 = NCI-H1155 (RB1 mutant)
Method: as §1, §2

NCI-H596 = NCI-H596 (RB1 mutant)
Method: as §1, §2

NCI-H2110 = NCI-H2110 (RB1 mutant)
Method: as §1, §2

ABC-1 = ABC-1 (RB1 wild-type)
Method: as §1, §2

NCI-H661 = NCI-H661 (RB1 wild-type)
Method: as §1, §2

LU65 = LU65 (RB1 mutant)
Method: as §1, §2

NCI-H460 = NCI-H460 (RB1 wild-type)
Method: as §1, §2

EKVX = EKVX (RB1 wild-type)
Method: as §1, §2

HOP-62 = HOP-62 (RB1 wild-type)
Method: as §1, §2

NCI-H1666 = NCI-H1666 (RB1 wild-type)
Method: as §1, §2

NCI-H441 = NCI-H441 (RB1 wild-type)
Method: as §1, §2

[1] = pemetrexed + MYT1 siRNA #16 10 nM
[2] = pemetrexed + MYT1 siRNA #18 10 nM

## MYT1 #16: ON-TARGETplus individual siRNA, Dharmacon product code J-005026-16, nucleotide sequence SEQ ID No: 4 (GGACCUAAGUGACAUCAAC; chemistry not fully specified)
A549; 10 nM, no pemetrexed
  Cytotoxic activity of siRNA alone, MYT1 #16: −3.683%
A549; [1]
  Bliss score maximum value, MYT1 #16: 17.634
  HSA score maximum value, MYT1 #16: 15.047
NCI-H358; 10 nM, no pemetrexed
  Cytotoxic activity of siRNA alone, MYT1 #16: 0.021%
NCI-H358; [1]
  Bliss score maximum value, MYT1 #16: 12.322
  HSA score maximum value, MYT1 #16: 12.336
NCI-H1993; 10 nM, no pemetrexed
  Cytotoxic activity of siRNA alone, MYT1 #16: 35.910%
NCI-H1993; [1]
  Bliss score maximum value, MYT1 #16: 5.736
  HSA score maximum value, MYT1 #16: 21.843
NCI-H322; 10 nM, no pemetrexed
  Cytotoxic activity of siRNA alone, MYT1 #16: −10.363%
NCI-H322; [1]
  Bliss score maximum value, MYT1 #16: 24.679
NCI-H292; 10 nM, no pemetrexed
  Cytotoxic activity of siRNA alone, MYT1 #16: 19.878%
NCI-H292; [1]
  Bliss score maximum value, MYT1 #16: 19.031
  HSA score maximum value, MYT1 #16: 21.907
PC-9; 10 nM, no pemetrexed
  Cytotoxic activity of siRNA alone, MYT1 #16: −5.180%
PC-9; [1]
  Bliss score maximum value, MYT1 #16: 35.148
NCI-H2122; 10 nM, no pemetrexed
  Cytotoxic activity of siRNA alone, MYT1 #16: 11.825%
NCI-H2122; [1]
  Bliss score maximum value, MYT1 #16: 15.749
  HSA score maximum value, MYT1 #16: 20.659
ChaGo-K-1; 10 nM, no pemetrexed
  Cytotoxic activity of siRNA alone, MYT1 #16: −1.049%
ChaGo-K-1; [1]
  Bliss score maximum value, MYT1 #16: 40.066
  HSA score maximum value, MYT1 #16: 39.075
NCI-H1155; 10 nM, no pemetrexed
  Cytotoxic activity of siRNA alone, MYT1 #16: 5.782%
NCI-H1155; [1]
  Bliss score maximum value, MYT1 #16: 77.287
  HSA score maximum value, MYT1 #16: 76.586
NCI-H596; 10 nM, no pemetrexed
  Cytotoxic activity of siRNA alone, MYT1 #16: 13.549%
NCI-H596; [1]
  Bliss score maximum value, MYT1 #16: 56.598
  HSA score maximum value, MYT1 #16: 67.277
NCI-H2110; 10 nM, no pemetrexed
  Cytotoxic activity of siRNA alone, MYT1 #16: 15.886%
NCI-H2110; [1]
  Bliss score maximum value, MYT1 #16: 24.584
  HSA score maximum value, MYT1 #16: 36.712
ABC-1; 10 nM, no pemetrexed
  Cytotoxic activity of siRNA alone, MYT1 #16: 3.870%
ABC-1; [1]
  Bliss score maximum value, MYT1 #16: 21.970
  HSA score maximum value, MYT1 #16: 25.475
NCI-H661; 10 nM, no pemetrexed
  Cytotoxic activity of siRNA alone, MYT1 #16: 20.313%
NCI-H661; [1]
  Bliss score maximum value, MYT1 #16: 8.081
  HSA score maximum value, MYT1 #16: 22.502
LU65; 10 nM, no pemetrexed
  Cytotoxic activity of siRNA alone, MYT1 #16: 8.109%
LU65; [1]
  Bliss score maximum value, MYT1 #16: 29.374
  HSA score maximum value, MYT1 #16: 34.405
NCI-H460; 10 nM, no pemetrexed
  Cytotoxic activity of siRNA alone, MYT1 #16: −6.609%
NCI-H460; [1]
  Bliss score maximum value, MYT1 #16: 17.443
  HSA score maximum value, MYT1 #16: 9.093
EKVX; 10 nM, no pemetrexed
  Cytotoxic activity of siRNA alone, MYT1 #16: −1.125%
EKVX; [1]
  Bliss score maximum value, MYT1 #16: 16.454
  HSA score maximum value, MYT1 #16: 15.771
HOP-62; 10 nM, no pemetrexed
  Cytotoxic activity of siRNA alone, MYT1 #16: 8.347%
HOP-62; [1]
  Bliss score maximum value, MYT1 #16: 20.165
  HSA score maximum value, MYT1 #16: 24.453
NCI-H1666; 10 nM, no pemetrexed
  Cytotoxic activity of siRNA alone, MYT1 #16: −4.467%
NCI-H1666; [1]
  Bliss score maximum value, MYT1 #16: 8.127
  HSA score maximum value, MYT1 #16: 5.753
NCI-H441; 10 nM, no pemetrexed
  Cytotoxic activity of siRNA alone, MYT1 #16: 12.986%
NCI-H441; [1]
  Bliss score maximum value, MYT1 #16: 21.600
  HSA score maximum value, MYT1 #16: 30.794

## MYT1 #18: ON-TARGETplus individual siRNA, Dharmacon product code J-005026-18, nucleotide sequence SEQ ID No: 5 (CUUCCGAGCUGCGUUCUGU; chemistry not fully specified)
A549; 10 nM, no pemetrexed
  Cytotoxic activity of siRNA alone, MYT1 #18: 0.844%
A549; [2]
  Bliss score maximum value, MYT1 #18: 9.581
  HSA score maximum value, MYT1 #18: 10.174
NCI-H358; 10 nM, no pemetrexed
  Cytotoxic activity of siRNA alone, MYT1 #18: 2.693%
NCI-H358; [2]
  Bliss score maximum value, MYT1 #18: 13.168
  HSA score maximum value, MYT1 #18: 14.592
NCI-H1993; 10 nM, no pemetrexed
  Cytotoxic activity of siRNA alone, MYT1 #18: 10.347%
NCI-H1993; [2]
  Bliss score maximum value, MYT1 #18: 7.046
  HSA score maximum value, MYT1 #18: 14.207
NCI-H322; 10 nM, no pemetrexed
  Cytotoxic activity of siRNA alone, MYT1 #18: −6.271%
NCI-H322; [2]
  Bliss score maximum value, MYT1 #18: 23.827
  HSA score maximum value, MYT1 #18: 19.509
NCI-H292; 10 nM, no pemetrexed
  Cytotoxic activity of siRNA alone, MYT1 #18: 11.155%
NCI-H292; [2]
  Bliss score maximum value, MYT1 #18: 6.895
  HSA score maximum value, MYT1 #18: 11.985
PC-9; 10 nM, no pemetrexed
  Cytotoxic activity of siRNA alone, MYT1 #18: −9.517%
PC-9; [2]
  Bliss score maximum value, MYT1 #18: 18.833
  HSA score maximum value, MYT1 #18: 14.476
NCI-H2122; 10 nM, no pemetrexed
  Cytotoxic activity of siRNA alone, MYT1 #18: 5.899%
NCI-H2122; [2]
  Bliss score maximum value, MYT1 #18: 13.938
ChaGo-K-1; 10 nM, no pemetrexed
  Cytotoxic activity of siRNA alone, MYT1 #18: −2.748%
ChaGo-K-1; [2]
  Bliss score maximum value, MYT1 #18: 34.464
  HSA score maximum value, MYT1 #18: 32.605
NCI-H1155; 10 nM, no pemetrexed
  Cytotoxic activity of siRNA alone, MYT1 #18: 30.960%
NCI-H1155; [2]
  Bliss score maximum value, MYT1 #18: 23.341
  HSA score maximum value, MYT1 #18: 32.708
NCI-H596; 10 nM, no pemetrexed
  Cytotoxic activity of siRNA alone, MYT1 #18: −2.058%
NCI-H596; [2]
  Bliss score maximum value, MYT1 #18: 44.329
  HSA score maximum value, MYT1 #18: 42.707
NCI-H2110; 10 nM, no pemetrexed
  Cytotoxic activity of siRNA alone, MYT1 #18: 9.660%
NCI-H2110; [2]
  Bliss score maximum value, MYT1 #18: 23.200
  HSA score maximum value, MYT1 #18: 28.531
ABC-1; 10 nM, no pemetrexed
  Cytotoxic activity of siRNA alone, MYT1 #18: 7.811%
ABC-1; [2]
  Bliss score maximum value, MYT1 #18: 22.139
NCI-H661; 10 nM, no pemetrexed
  Cytotoxic activity of siRNA alone, MYT1 #18: 9.766%
NCI-H661; [2]
  Bliss score maximum value, MYT1 #18: 11.699
  HSA score maximum value, MYT1 #18: 16.633
LU65; 10 nM, no pemetrexed
  Cytotoxic activity of siRNA alone, MYT1 #18: −0.297%
LU65; [2]
  Bliss score maximum value, MYT1 #18: 34.154
  HSA score maximum value, MYT1 #18: 33.984
NCI-H460; 10 nM, no pemetrexed
  Cytotoxic activity of siRNA alone, MYT1 #18: −2.387%
NCI-H460; [2]
  HSA score maximum value, MYT1 #18: 9.099
EKVX; 10 nM, no pemetrexed
  Cytotoxic activity of siRNA alone, MYT1 #18: 1.053%
EKVX; [2]
  Bliss score maximum value, MYT1 #18: 6.653
  HSA score maximum value, MYT1 #18: 7.060
HOP-62; 10 nM, no pemetrexed
  Cytotoxic activity of siRNA alone, MYT1 #18: 10.654%
HOP-62; [2]
  Bliss score maximum value, MYT1 #18: 20.375
  HSA score maximum value, MYT1 #18: 25.849
NCI-H1666; 10 nM, no pemetrexed
  Cytotoxic activity of siRNA alone, MYT1 #18: 1.456%
NCI-H1666; [2]
  Bliss score maximum value, MYT1 #18: 13.160
  HSA score maximum value, MYT1 #18: 13.970
NCI-H441; 10 nM, no pemetrexed
  Cytotoxic activity of siRNA alone, MYT1 #18: 22.238%
NCI-H441; [2]
  Bliss score maximum value, MYT1 #18: 0.784
  HSA score maximum value, MYT1 #18: 17.896
